Source: patent US20220235043A1, “SUBSTITUTED SULFONAMIDE PYRROLOPYRIDINES AS JAK INHIBITORS” (ACLARIS THERAPEUTICS, INC., priority 2019, published 2022)

How the values were obtained:
JAK1 = molecular target: T1, JAK1 (Homo sapiens, UniProt P23458); test: JAK1 enzyme activity assay (Thermo Fisher Selectscreen, Z-lyte); type: biochemical; settings: read-out: JAK1 Inhibition IC50
T1 construct: purchased Thermo Fisher Scientific (SelectScreen service)
Method: (§1) The inhibitory potency of candidate compounds of JAK1, JAK2, and Tyk-2 was done at Thermo Fisher Scientific in their Selectscreen using a Z-lyte assay. Following are the assay details for each enzyme.
JAK1: The 2×JAK-enzyme/Tyr 06 mixture is prepared in 50 mM HEPES pH 6.5, 0.01% BRIJ-35, 10 mM MgCl2, 1 mM EGTA, 0.02% NaN3. The final 10 μL of the Kinase Reaction consists of 21.2-91.5 ng JAK1 and 2 μM Tyr 06 in 50 mM HEPES pH 7.0, 0.01% BRIJ-35, 10 mM MgCl2, 1 mM EGTA, 0.01% NaN3. After the one hour Kinase Reaction incubation, 5 μL of a 1:128 dilution of Development Reagent is added.
(§2) Data reduction for JAK1, JAK2 and TYK2 is done the same, independent of the enzyme run. In summary, background signal is defined in the absence of enzyme and uninhibited signal is defined in the presence of vehicle (2% DMSO) alone. Compounds were evaluated in an 11 point dose-response ranging from […] to 0.34 nM. IC50 values of compounds are determined using a 4 parameter logistical fit of emission ratio as a function of the concentration of compound.

JAK2 = molecular target: T2, JAK2 (Homo sapiens, UniProt O60674); test: JAK2 enzyme activity assay (Thermo Fisher Selectscreen, Z-lyte); type: biochemical; settings: read-out: JAK2 Inhibition IC50
T2 construct: purchased Thermo Fisher Scientific (SelectScreen service)
Method: as §1
JAK2: The 2×JAK2/Tyr 06 mixture is prepared in 50 mM HEPES pH 7.5, 0.01% BRIJ-35, 10 mM MgCl2, 1 mM EGTA. The final 10 μL Kinase Reaction consists of 0.12-0.5 ng JAK2 and 2 μM Tyr 06 in 50 mM HEPES pH 7.5, 0.01% BRIJ-35, 10 mM MgCl2, 1 mM EGTA. After the one hour Kinase Reaction incubation, 5 μL of a 1:128 dilution of Development Reagent A is added.
as §2

JAK3 (a.a. 781-1124) = molecular target: T3, JAK3 (a.a. 781-1124) (Homo sapiens, UniProt P52333); test: JAK3 enzyme activity assay (SRCtide phosphorylation, Caliper); type: biochemical; settings: 1 uM ATP; read-out: JAK3 Inhibition IC50
T3 construct: JAK3 (a.a. 781-1124, ThermoFisher); purchased ThermoFisher
Method: The activity of JAK3 (a.a. 781-1124, ThermoFisher) was quantified by measuring the phosphorylation of SRCtide (FAM-GEEPLYWSFPAKKK-NH2). Kinase reactions were run in a 384-well Greiner plate with 2% final DMSO concentration under the buffer conditions of 20 mM HEPES, pH 7.5, 10 mM MgCl2, 0.01% BSA, and 0.0005% Tween-20. The kinase reaction components were 2.5 nM JAK3, 1 μM SRCtide peptide and 1 uM ATP. Examples were tested in dose-response starting at […] (11 concentrations, 3-fold serial dilution, duplicate reactions). The reactions were incubated at room temperature for 40 minutes, then stopped by adding a 1:1 volume of 30 mM EDTA in 20 mM HEPES, pH 7.5 (15 mM EDTA final). After the reaction was stopped, the phosphorylated and unphosphorylated peptides were separated and quantified using a Caliper LC3000/EZ-Reader system and HTS Well Analyzer Software (Caliper, A PerkinElmer Company, Hopkinton, Mass.). GraFit (Erithacus Software Ltd., Horley, U.K.) was used to calculate inhibitor potency by fitting dose-response data to the 4-parameter logistical IC50 equation.

Tyk-2 = molecular target: T4, Tyk-2 (Homo sapiens, UniProt P29597); test: Tyk-2 enzyme activity assay (Thermo Fisher Selectscreen, Z-lyte); type: biochemical; settings: read-out: Tyk-2 Inhibition IC50
T4 construct: purchased Thermo Fisher Scientific (SelectScreen service)
Method: as §1
TYK2: The 2×TYK2/Tyr 03 mixture is prepared in 50 mM HEPES pH 6.5, 0.01% BRIJ-35, 10 mM MgCl2, 1 mM EGTA, 0.02% NaN3. The final 10 μL Kinase Reaction consists of 3.75-15 ng TYK2 and 2 μM Tyr 03 in 50 mM HEPES pH 7.0, 0.01% BRIJ-35, 10 mM MgCl2, 1 mM EGTA, 0.01% NaN3. After the one hour KinaseReaction incubation, 5 μL of a 1:4096 dilution of Development Reagent A is added.
as §2

[1] = tested on: IL-2 stimulated STAT5 phosphorylation on Tyr694 (JAK1/3); test: JAK1/3 cellular target modulation: IL-2 stimulated phospho-STAT5 in human PBMC; type: cell-based; settings: IL-2 25 ng/ml, read-out: IL2-STAT5 IC50
Text: (§3) Target modulation was based upon the ability of a compound to inhibit JAK isoform specific phosphorylation of selected substrates. IL-2 stimulated STAT5 phosphorylation on Tyr694 was used to assess JAK1/3 compound selectivity. GM-CSF stimulated STAT5 phosphorylation on Tyr694 was used to assess JAK2 compound selectivity. IFNγ stimulated STAT1 phosphorylation on Tyr701 was used to assess JAK1/2 compound selectivity. IL-12 stimulated STAT4 phosphorylation on Tyr693 was used to assess JAK2/TYK2 compound selectivity. For all four assays, human PBMC from frozen stocks were thawed, pelleted, resuspended in complete media (90% RPMI, 10% heat inactivated FBS, 10 mM HEPES, 47 μM 2-ME, pen/strep) and placed in wells of a 96 well V-bottom plate at 200,000 per well in 120 μl complete media. Compounds were added as 15 μl per well of 10× working stock solutions in complete media with 1% DMSO (or medium with 1% DMSO for controls) and placed on a plate shaker in a 37° C. incubator with 5% CO2 for 1 hour with gentle shaking (setting of 3). Stimulation used the addition of soluble cytokines. For the JAK1/3 phospho-STAT5 assay, 15 μl of 10× working stock recombinant human IL-2 was added to a final concentration of 25 ng/ml. For the JAK2 phospho-STAT5 assay, 15 μl of 10× working stock recombinant human GM-CSF was added to a final concentration of 5 ng/ml. For the JAK1/2 phospho-STAT1 assay, 15 μl of 10× working stock of recombinant human IFNγ was added to a final concentration of 10 ng/ml. For the JAK2/TYK2 phospho-STAT4 assay, 15 μl of 10× working stock of recombinant human IL-12 was added to a final concentration of 1.7 ng/ml. Plates were then placed back on the plate shaker in the incubator for an additional 5, 5, 10, and 25 minutes respectively upon which the plates were removed from the incubator, sealed with a plate sealer and the cells pelleted at 400×g for 5 minutes. After pelleting, the media was removed by aspiration and the cells were lysed in assay specific cell lysis buffer. The levels of phospho-STAT5 were determined using a Phospho (Tyr694)STAT5a,b Whole Cell Lysate kit from Meso Scale Discovery. Levels of phospho-STAT1 were determined using a CST-PathScan Phospho-STAT1 (Tyr701) Sandwich ELISA kit. Levels of phospho-STAT4 were determined using a Phospho-STAT4 (Tyr693) Whole Cell Lysate kit from Meso Scale Discovery.

[2] = tested on: IFNγ stimulated STAT1 phosphorylation on Tyr701 (JAK1/2); test: JAK1/2 cellular target modulation: IFNγ stimulated phospho-STAT1 in human PBMC; type: cell-based; settings: IFNγ 10 ng/ml, read-out: Infγ-STAT1 IC50
Text: as §3

[3] = tested on: IL-12 stimulated STAT4 phosphorylation on Tyr693 (JAK2/TYK2); test: JAK2/TYK2 cellular target modulation: IL-12 stimulated phospho-STAT4 in human PBMC; type: cell-based; settings: IL-12 1.7 ng/ml, read-out: IL12-STAT4 IC50
Text: as §3

T1 sequence (P23458 whole entry): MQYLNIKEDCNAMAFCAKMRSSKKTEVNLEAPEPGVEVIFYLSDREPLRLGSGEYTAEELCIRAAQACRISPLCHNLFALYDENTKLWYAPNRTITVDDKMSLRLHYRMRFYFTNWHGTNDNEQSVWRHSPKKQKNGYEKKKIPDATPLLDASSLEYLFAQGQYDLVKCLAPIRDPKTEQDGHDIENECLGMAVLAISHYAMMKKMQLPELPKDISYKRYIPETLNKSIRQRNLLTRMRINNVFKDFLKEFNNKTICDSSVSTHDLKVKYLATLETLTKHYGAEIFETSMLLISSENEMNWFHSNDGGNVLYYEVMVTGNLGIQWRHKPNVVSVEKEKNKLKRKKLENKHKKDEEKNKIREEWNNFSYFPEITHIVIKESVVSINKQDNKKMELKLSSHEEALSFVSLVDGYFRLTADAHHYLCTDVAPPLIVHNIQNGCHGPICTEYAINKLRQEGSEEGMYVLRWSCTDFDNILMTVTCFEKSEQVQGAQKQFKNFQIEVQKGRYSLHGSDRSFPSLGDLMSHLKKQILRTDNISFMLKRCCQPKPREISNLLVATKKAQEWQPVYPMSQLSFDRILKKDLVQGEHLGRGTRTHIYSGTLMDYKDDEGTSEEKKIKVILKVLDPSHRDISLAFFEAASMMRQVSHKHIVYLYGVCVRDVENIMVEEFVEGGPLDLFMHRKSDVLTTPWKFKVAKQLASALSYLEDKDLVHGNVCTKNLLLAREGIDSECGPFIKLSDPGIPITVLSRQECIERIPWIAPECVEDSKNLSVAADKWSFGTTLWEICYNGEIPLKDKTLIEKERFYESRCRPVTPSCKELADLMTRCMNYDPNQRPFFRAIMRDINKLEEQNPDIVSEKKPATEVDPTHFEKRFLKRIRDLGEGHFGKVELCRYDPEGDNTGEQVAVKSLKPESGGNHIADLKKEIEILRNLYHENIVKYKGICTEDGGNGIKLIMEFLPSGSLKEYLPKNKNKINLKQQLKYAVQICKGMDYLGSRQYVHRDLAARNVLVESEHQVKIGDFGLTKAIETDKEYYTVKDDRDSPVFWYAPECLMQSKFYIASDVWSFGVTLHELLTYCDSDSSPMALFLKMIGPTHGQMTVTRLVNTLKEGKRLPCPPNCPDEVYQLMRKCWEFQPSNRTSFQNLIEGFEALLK
T4 sequence (P29597 whole entry): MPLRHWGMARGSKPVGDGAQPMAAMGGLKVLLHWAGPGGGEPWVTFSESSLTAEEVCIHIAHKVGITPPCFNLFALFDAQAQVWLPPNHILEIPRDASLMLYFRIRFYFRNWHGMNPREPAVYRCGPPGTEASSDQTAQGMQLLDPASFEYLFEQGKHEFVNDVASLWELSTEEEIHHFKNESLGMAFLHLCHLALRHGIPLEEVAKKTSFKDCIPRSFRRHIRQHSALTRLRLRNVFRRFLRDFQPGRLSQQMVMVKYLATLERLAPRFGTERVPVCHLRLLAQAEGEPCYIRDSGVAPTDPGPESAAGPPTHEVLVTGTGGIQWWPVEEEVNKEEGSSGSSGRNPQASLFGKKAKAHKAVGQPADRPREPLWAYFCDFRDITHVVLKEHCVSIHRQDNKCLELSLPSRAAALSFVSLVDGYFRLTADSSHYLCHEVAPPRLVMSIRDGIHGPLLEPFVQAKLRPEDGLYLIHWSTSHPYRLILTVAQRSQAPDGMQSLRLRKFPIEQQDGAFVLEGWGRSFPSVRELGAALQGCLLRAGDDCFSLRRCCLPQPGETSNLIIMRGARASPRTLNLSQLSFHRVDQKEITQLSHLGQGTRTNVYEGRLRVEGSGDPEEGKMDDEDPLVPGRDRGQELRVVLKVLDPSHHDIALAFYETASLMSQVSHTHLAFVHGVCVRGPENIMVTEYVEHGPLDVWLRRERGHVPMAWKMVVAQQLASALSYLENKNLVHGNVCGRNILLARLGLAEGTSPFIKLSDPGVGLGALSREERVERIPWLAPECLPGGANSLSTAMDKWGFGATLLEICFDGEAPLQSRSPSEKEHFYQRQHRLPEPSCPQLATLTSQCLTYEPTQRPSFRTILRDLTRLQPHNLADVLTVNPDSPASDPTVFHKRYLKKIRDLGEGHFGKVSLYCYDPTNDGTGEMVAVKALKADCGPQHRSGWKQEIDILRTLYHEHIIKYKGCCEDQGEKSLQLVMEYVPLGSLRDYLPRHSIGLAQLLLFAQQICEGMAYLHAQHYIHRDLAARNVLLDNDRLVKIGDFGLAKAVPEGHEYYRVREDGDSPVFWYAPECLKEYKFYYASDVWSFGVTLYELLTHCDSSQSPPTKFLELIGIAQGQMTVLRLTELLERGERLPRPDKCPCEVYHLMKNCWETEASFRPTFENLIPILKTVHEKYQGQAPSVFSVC
T2 sequence (O60674 whole entry): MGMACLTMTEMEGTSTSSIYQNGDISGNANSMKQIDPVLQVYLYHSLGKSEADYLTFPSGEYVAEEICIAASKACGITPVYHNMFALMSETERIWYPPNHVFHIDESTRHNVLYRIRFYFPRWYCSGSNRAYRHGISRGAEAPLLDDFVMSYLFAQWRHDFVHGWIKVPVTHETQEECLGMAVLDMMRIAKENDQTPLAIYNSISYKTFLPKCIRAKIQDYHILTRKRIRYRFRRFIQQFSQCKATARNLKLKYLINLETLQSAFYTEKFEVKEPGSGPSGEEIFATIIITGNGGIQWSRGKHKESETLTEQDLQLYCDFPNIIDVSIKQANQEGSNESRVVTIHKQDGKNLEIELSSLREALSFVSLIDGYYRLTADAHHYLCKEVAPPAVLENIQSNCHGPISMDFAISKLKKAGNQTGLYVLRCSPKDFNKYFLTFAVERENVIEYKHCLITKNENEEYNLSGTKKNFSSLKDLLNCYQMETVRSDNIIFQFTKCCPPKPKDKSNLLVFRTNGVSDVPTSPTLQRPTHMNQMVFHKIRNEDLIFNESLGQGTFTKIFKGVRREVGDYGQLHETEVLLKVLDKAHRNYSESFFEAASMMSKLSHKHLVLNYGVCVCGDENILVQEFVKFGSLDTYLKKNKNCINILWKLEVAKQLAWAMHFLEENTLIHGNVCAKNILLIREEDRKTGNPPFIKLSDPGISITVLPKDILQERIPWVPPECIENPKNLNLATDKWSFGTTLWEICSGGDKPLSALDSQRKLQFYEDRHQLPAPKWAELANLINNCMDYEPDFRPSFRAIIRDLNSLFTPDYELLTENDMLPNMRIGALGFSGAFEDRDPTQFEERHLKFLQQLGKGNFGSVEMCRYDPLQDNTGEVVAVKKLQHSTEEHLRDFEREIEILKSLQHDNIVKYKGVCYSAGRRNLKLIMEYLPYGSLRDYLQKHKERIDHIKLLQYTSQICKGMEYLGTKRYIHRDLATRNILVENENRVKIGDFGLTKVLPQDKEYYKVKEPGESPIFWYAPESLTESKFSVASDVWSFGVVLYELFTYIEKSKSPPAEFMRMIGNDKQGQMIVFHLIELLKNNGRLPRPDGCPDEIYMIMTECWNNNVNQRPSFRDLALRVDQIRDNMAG
T3 sequence (P52333 781-1124): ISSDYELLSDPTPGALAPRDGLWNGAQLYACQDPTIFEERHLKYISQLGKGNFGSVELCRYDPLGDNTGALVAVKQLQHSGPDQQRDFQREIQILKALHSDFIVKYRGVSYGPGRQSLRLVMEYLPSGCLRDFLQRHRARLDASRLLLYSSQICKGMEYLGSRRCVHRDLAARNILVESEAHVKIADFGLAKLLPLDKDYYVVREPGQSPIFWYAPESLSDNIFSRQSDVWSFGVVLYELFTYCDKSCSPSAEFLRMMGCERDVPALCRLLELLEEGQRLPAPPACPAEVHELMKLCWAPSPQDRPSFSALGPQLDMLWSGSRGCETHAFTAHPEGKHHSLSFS

Structure (SMILES)	IC50 (JAK1) [nM]	IC50 (JAK2) [nM]	IC50 (JAK3 (a.a. 781-1124)) [nM]	IC50 (Tyk-2) [nM]	IC50 [1] [nM]	IC50 [2] [nM]	IC50 [3] [nM]
CCOC(=O)c1cnc2[nH]ccc2c1NC1CC(NS(=O)(=O)c2cc(C#N)ccn2)C1 (mixture of isomers) [Example 1, ethyl 4-((3-((4-cyanopyridine)-2-sulfonamido)cyclobutyl)amino)-1H-pyrrolo[2,3-b]pyridine-5-carboxylate]	10 to 100	100 to 1000	10 to 100	100 to 1000	100 to 1000	> 1000	
CCOC(=O)c1cnc2[nH]ccc2c1N[C@H]1C[C@@H](NS(=O)(=O)c2cccc(C#N)c2)C1 [Example 2, cis-Ethyl 4-((3-((3-cyanophenyl)sulfonamido)cyclobutyl)amino)-1H-pyrrolo[2,3-b]pyridine-5-carboxylate]	≤ 10	10 to 100	10 to 100	10 to 100	≤ 100	100 to 1000	
CCOC(=O)c1cnc2[nH]ccc2c1N[C@H]1C[C@H](NS(=O)(=O)c2cccc(C#N)c2)C1 [Example 3, trans-Ethyl 4-((3-((3-cyanophenyl)sulfonamido)cyclobutyl)amino)-1H-pyrrolo[2,3-b]pyridine-5-carboxylate]	≤ 10	10 to 100	10 to 100	10 to 100	100 to 1000	100 to 1000	
CCOC(=O)c1cnc2[nH]ccc2c1N[C@H]1C[C@H](NS(=O)(=O)c2cc(C#N)ccn2)C1 [Example 4, ethyl 4-(((1r,3r)-3-((4-cyanopyridine)-2-sulfonamido)cyclobutyl)amino)-1H-pyrrolo[2,3-b]pyridine-5-carboxylate]	10 to 100	10 to 100	10 to 100	100 to 1000	> 1000		
CCOC(=O)c1cnc2[nH]ccc2c1N[C@H]1C[C@@H](NS(=O)(=O)c2cc(C#N)ccn2)C1 [Example 5, ethyl 4-(((1s,3s)-3-((4-cyanopyridine)-2-sulfonamido)cyclobutyl)amino)-1H-pyrrolo[2,3-b]pyridine-5-carboxylate]	≤ 10	10 to 100	10 to 100	10 to 100	100 to 1000	100 to 1000	> 1000
N#Cc1cccc(S(=O)(=O)N[C@H]2C[C@@H](Nc3c(-c4ncco4)cnc4[nH]ccc34)C2)c1 [Example 7, 3-cyano-N-((1s,3s)-3-((5-(oxazol-2-yl)-1H-pyrrolo[2,3-b]pyridin-4-yl)amino)cyclobutyl)benzenesulfonamide]	≤ 10	≤ 10	10 to 100	10 to 100	100 to 1000	100 to 1000	> 1000

Now from value to molecule:

IC50 (JAK1) [nM]	IC50 (JAK2) [nM]	IC50 (JAK3 (a.a. 781-1124)) [nM]	IC50 (Tyk-2) [nM]	IC50 [1] [nM]	IC50 [2] [nM]	IC50 [3] [nM]	Structure (SMILES)
≤ 10	≤ 10	10 to 100	10 to 100	≤ 100		> 1000	CCCS(=O)(=O)N[C@H]1C[C@@H](Nc2c(-c3ncco3)cnc3[nH]ccc23)C1 [Example 65, N-((1s,3s)-3-((5-(1,3-oxazol-2-yl)-1H-pyrrolo[2,3-b]pyridin-4-yl)amino)cyclobutyl)propane-1-sulfonamide]
≤ 10	10 to 100	100 to 1000	10 to 100	100 to 1000	> 1000		CNC(=O)c1ccnc(-c2cnc3[nH]ccc3c2N[C@H]2C[C@@H](NS(=O)(=O)c3cc(C#N)ccn3)C2)c1 [Example 67, 2-(4-(((1s,3s)-3-((4-cyanopyridine)-2-sulfonamido)cyclobutyl)amino)-1H-pyrrolo[2,3-b]pyridin-5-yl)-N-methylisonicotinamide]
10 to 100	100 to 1000	10 to 100	100 to 1000	> 1000			CCCS(=O)(=O)N[C@H]1C[C@@H](Nc2c(-c3cc(C(=O)NC)ccn3)cnc3[nH]ccc23)C1 [Example 68, N-methyl-2-(4-(((1s,3s)-3-(propylsulfonamido)cyclobutyl)amino)-1H-pyrrolo[2,3-b]pyridin-5-yl)isonicotinamide]
10 to 100	10 to 100	10 to 100	100 to 1000	100 to 1000		> 1000	CCCS(=O)(=O)N[C@H]1C[C@@H](Nc2c(-c3nnco3)cnc3[nH]ccc23)C1 [Example 80, N-((1s,3s)-3-((5-(1,3,4-oxadiazol-2-yl)-1H-pyrrolo[2,3-b]pyridin-4-yl)amino)cyclobutyl)propane-1-sulfonamide]
100 to 1000	100 to 1000	> 1000	> 1000				Cc1nnc(-c2cnc3[nH]ccc3c2N[C@H]2C[C@@H](NS(=O)(=O)c3cc(C#N)ccn3)C2)o1 [Example 83, 4-cyano-N-((1s,3s)-3-((5-(5-methyl-1,3,4-oxadiazol-2-yl)-1H-pyrrolo[2,3-b]pyridin-4-yl)amino)cyclobutyl)pyridine-2-sulfonamide]
